Patent US9096632B2, “Modulator of activity of adenylate cyclase” (Public University Corporation Yokohama City University, priority 2010, dated 2015)

Legend:
[1] = tested on: cardiac myocytes in myocardial tissues; assay: TUNEL staining of myocardial tissues of chronic catecholamine-loaded mice; format: in vivo, mouse; details: mice of the chronic isoproterenol loading experiment
Experimental: FIG. 12 TUNEL stain of myocardial tissues. Apoptosis positive cardiac myocytes in the hearts of mice used in chronic catecholamine loading experiment (FIG. 9) were evaluated by TUNEL staining (n=4-6, means±SE).
<TUNEL Staining of Myocardial Tissues>
Apoptosis positive cells of the mice used in the chronic catecholamine loading experiment were evaluated by TUNEL staining.

[2] = Water solubility / hydrophilicity (stock solutions in pure water); format: physicochemical; details: in words
Experimental: The thus synthesized position 2-substituted derivative (V2E), position 3-substituted derivative (V3E) and position 5-substituted derivative (V5E) were dissolved in pure water to give a concentration of 10 mM, to thereby prepare stock solutions. Vidarabine was dissolved in 100% dimethylsulfoxide to thereby prepare a 10 mM stock solution.
The newly synthesized three vidarabine derivatives (FIG. 1) were dissolved in pure water to thereby prepare 10 mM stock solutions. Since vidarabine infusion of about 2 mM is used in clinical scenes as an antiherpes therapeutic (Arasena-A for intravenous infusion; Mochida Pharmaceutical Co., Ltd.), it was possible to prepare solutions at concentrations about 5 times higher than that of the infusion. In the present study, vidarabine was dissolved in 100% DMSO to prepare a 10 mM stock solution.

[3] = vidarabine, background statement; cited from earlier work

Row | SMILES | apoptosis of cardiac myocytes induced by chronic catecholamine stimulation (TUNEL, myocardial tissue) [1] | hydrophilicity [2] | water solubility [3]
1 | CN(C)CC(=O)OC1C(O)C(CO)OC1n1cnc2c(N)ncnc21 (stereo not shown) [V2E, 2-O—(N,N-Dimethylglycyl)Vidarabine] | equally inhibited | highly hydrophilic | –
2 | Nc1ncnc2c1ncn2[C@@H]1O[C@H](CO)[C@@H](O)[C@@H]1O [vidarabine, reference compound] | equally inhibited | – | poor
